Experimental data taken from patent US20110033393A1, “Hydrazone Compounds and Their Use” (priority 2009, published 2011).

Target: T1, human TRPM5 ion channel (Homo sapiens, UniProt Q9NZQ8)
T1 sequence (Q9NZQ8 1-1165): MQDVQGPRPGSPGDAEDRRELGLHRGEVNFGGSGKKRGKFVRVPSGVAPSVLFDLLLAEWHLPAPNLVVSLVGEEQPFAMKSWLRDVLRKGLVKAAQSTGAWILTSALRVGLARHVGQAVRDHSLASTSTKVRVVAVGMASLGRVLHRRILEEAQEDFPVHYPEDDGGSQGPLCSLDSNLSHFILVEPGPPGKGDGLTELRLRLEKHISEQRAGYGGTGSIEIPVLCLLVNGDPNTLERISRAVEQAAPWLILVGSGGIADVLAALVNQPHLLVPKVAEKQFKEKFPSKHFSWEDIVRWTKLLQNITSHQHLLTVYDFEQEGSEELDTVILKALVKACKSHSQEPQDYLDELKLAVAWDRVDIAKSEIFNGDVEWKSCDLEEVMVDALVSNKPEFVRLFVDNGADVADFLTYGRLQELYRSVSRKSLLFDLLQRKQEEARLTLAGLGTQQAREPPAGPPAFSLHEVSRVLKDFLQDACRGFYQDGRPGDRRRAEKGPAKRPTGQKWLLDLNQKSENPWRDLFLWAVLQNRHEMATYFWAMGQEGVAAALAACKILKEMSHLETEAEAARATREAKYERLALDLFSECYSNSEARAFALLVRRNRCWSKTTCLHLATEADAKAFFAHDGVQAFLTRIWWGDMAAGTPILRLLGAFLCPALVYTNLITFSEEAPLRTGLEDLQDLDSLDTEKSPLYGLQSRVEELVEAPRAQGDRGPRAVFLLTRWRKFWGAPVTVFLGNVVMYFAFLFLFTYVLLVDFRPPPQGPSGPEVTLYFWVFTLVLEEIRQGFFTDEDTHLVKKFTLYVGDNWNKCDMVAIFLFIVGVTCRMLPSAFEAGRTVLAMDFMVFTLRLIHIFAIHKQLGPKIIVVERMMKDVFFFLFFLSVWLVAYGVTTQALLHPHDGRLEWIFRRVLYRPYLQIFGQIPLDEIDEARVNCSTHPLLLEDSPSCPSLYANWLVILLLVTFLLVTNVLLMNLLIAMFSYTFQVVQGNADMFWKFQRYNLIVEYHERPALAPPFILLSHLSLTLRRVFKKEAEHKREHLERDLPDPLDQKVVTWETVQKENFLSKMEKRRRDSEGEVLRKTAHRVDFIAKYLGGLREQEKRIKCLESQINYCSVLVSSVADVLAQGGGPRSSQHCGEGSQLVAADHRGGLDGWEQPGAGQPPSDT
Test: FLIPR-based assay for membrane potential and calcium mobilization (TRPM5 inhibiting activity)
Format: cell-based
Settings: live cells, 30° C., read-out: hTrpM5 IC50
Procedure: The activity of compounds of the present invention on human TRPM5 ion channel was measured using the FLIPR-based (fluorescent imaging plate reader) assay for membrane potential and calcium mobilization described in U.S. Patent Application Publication No. 2008/0249189 A1 in live cells, wherein the assay is performed at 30° C. Determinations of affinity and efficacy were derived from measurements of TRPM5 activity over a range of compound concentrations. The concentration range was achieved by 10 serial dilutions (either 2-fold or 3-fold decrements) from a maximum concentration of no greater that 100 μM. Curver fitting was performed on the resulting data to yield concentration-effect functions, from which the half-maximal inhibitory concentration (IC50) was derived for all the tested compounds. The IC50 values were considered to be accurate reflections of affinity between the compounds and TRPM5.
Representative compounds of the present invention have been tested in the FLIPR assay for TRPM5 inhibiting activity, which is described in detail above.

Structure (SMILES) | IC50
COc1ccc(/C=N/NC(=O)CCn2cc(C)c3c(C)cccc32)cc1OC [Example 7, N′-(3,4-Dimethoxybenzylidene)-3-(3,4-dimethyl-1H-indol-1-yl)propanehydrazide] | 0.0018 µM
COc1ccc(/C=N/NC(=O)CSc2cccc(CO)c2)cc1OC [Example 67, N′-(3,4-dimethoxybenzylidene)-2-(3-(hydroxymethyl)phenylthio)-acetohydrazide] | > 30 µM
Cc1cc(/C=N/NC(=O)CSc2cccc(Cl)c2)cc2cccnc12 [Example 35, 2-(3-Chlorophenylthio)-N′-((8-methylquinolin-6-yl)methylene)acetohydrazide] | 0.83 µM
Cc1cc(/C=N/NC(=O)C2CC2c2ccc(F)cc2)cc2cccnc12 (stereo not drawn) [Example 40, trans-2-(4-Fluorophenyl)-N′-((8-methylquinolin-6-yl)methylene)cyclopropanecarbohydrazide] | 0.51 µM
COc1ccc(/C=N/NC(=O)[C@@H]2C[C@H]2c2cccc(C)n2)cc1OC (relative stereo) [Example 37, trans-N′-(3,4-Dimethoxybenzylidene)-2-(6-methylpyridin-2-yl)cyclopropanecarbohydrazide] | 3.2 µM
COc1cc(/C=N/NC(=O)CCn2cc(C)c3c(C)cccc32)ccc1OCc1cnccn1 [Example 21, 3-(3,4-Dimethyl-1H-indol-1-yl)-N′-(3-methoxy-4-(pyrazin-2-ylmethoxy)benzylidene)propanehydrazide] | 0.06 µM

More lines, in order of falling IC50, values ahead:

IC50 | Structure (SMILES)
0.43 µM | Cc1cn(CCC(=O)NN=Cc2ccc3nnccc3c2)c2ccccc12 [Example 34, N′-(Cinnolin-6-ylmethylene)-3-(3-methyl-1H-indol-1-yl)propanehydrazide]
0.055 µM | COc1ccc(/C=N/NC(=O)C(C)Sc2cccc(Cl)c2)cc1OC (stereo not drawn) [Example 1, 2-(3-Chlorophenylthio)-N′-(3,4-dimethoxybenzylidene)propanehydrazide]
0.04 µM | COc1ccc(/C=N/NC(=O)CSc2cccc(Cl)c2)cc1OC [Example 66, 2-(3-chlorophenylthio)-N′-(3,4-dimethoxybenzylidene)acetohydrazide]
